{"source": "patent US10041953B2", "about": "“Mass spectrometric determination of drug resistance” (priority 2013, dated 2018)", "assay_type_in_all_cases": "cell-based", "key": {"Salmonella strain 19222": {"tested_on": "Salmonella strain 19222", "test": "MIC for ciprofloxacin, Salmonella strain 19222", "settings": "Salmonella strain 19222, one gyrase amino acid substitution"}, "Salmonella strain 6836": {"tested_on": "Salmonella strain 6836", "test": "MIC for ciprofloxacin, Salmonella strain 6836", "settings": "Salmonella strain 6836, double gyrase mutation"}, "Salmonella strain 17109": {"tested_on": "Salmonella strain 17109", "test": "MIC for ciprofloxacin, Salmonella strain 17109", "settings": "Salmonella strain 17109, one gyrase amino acid substitution"}, "[1]": {"tested_on": "salmonella wild type (13471)", "test": "MIC for ciprofloxacin, wild type (13471)", "settings": "wild type gyrase"}}, "data": [{"smiles": "O=C(O)c1cn(C2CC2)c2cc(N3CCNCC3)c(F)cc2c1=O", "note": "[ciprofloxacin]", "values": [{"measurement": "MIC", "setting": "Salmonella strain 19222", "value": 1, "unit": "µg/mL"}, {"measurement": "MIC", "setting": "Salmonella strain 6836", "value": 32, "unit": "µg/mL"}, {"measurement": "MIC", "setting": "Salmonella strain 17109", "value": 1, "unit": "µg/mL"}, {"measurement": "MIC", "setting": "[1]", "value": 0.03, "unit": "µg/mL"}]}]}
